In ChEMBL document CHEMBL2074298, “Inhibition of vinblastine efflux mediated by P-glycoprotein by grapefruit juice components in caco-2 cells” (Biol Pharm Bull, 1998) one finds Activity data, which are given here for two compounds.

The target in data set [1] is T1, ATP-dependent translocase ABCB1 (Homo sapiens, UniProt P08183). The data set is described as follows: TP_TRANSPORTER: increase in Vinblastine transepithelial transpot (apical to basal)(Vinblastine: 0.01 uM, Naringenin: 855 uM) in Caco-2 cells. It is filed as functional, cell-based. To be noted: caco-2, 855 µM.
Data set [2] has as its target T1, ATP-dependent translocase ABCB1. The data set is described as follows: TP_TRANSPORTER: increase in Vinblastine transepithelial transpot (apical to basal) (Vinblastine: 0.01 uM, GFJ: 50 %) in Caco-2 cells. It is filed as functional, cell-based.

T1 sequence (P08183 whole entry): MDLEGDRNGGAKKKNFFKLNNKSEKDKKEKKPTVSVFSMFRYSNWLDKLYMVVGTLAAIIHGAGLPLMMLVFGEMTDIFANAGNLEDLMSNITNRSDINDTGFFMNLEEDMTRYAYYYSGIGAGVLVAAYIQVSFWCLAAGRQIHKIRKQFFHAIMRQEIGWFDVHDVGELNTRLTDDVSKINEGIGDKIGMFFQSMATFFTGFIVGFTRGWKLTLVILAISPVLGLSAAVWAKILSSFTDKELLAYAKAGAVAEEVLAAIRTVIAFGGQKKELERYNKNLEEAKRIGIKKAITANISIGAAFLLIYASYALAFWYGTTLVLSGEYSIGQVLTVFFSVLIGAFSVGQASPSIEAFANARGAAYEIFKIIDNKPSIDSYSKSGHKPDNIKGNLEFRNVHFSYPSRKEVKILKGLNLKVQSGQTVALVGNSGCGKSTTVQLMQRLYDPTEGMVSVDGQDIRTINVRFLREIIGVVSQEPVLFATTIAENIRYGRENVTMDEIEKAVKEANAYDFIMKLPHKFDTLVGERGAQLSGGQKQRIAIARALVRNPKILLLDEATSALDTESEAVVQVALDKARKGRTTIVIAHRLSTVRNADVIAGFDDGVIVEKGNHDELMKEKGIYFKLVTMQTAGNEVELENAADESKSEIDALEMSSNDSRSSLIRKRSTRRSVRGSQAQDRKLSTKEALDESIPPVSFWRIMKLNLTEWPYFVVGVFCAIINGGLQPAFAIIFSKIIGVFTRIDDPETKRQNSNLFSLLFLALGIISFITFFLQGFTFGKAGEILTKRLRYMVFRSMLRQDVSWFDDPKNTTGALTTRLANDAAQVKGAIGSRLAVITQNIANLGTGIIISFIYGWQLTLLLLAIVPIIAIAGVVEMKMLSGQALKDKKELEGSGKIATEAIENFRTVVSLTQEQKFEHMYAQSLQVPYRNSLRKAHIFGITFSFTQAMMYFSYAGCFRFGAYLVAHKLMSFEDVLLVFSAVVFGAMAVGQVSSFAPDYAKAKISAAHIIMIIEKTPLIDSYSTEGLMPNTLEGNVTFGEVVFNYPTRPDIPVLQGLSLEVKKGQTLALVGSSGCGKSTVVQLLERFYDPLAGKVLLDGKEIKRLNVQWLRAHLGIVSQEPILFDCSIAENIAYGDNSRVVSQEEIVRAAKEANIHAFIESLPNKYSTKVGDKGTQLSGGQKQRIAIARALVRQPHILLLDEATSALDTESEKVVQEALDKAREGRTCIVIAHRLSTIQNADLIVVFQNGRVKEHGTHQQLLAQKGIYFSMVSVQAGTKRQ

Turning to `O=C1C[C@@H](c2ccc(O)cc2)Oc2cc(O)cc(O)c21` [NARINGENIN], the Activity in data set [1] is 240%.

Regarding GRAPEFRUIT JUICE, the Activity in data set [2] is 240%.
